Test results: US20080009470A1, “Acremonic Acid Derivatives” (priority 2003, published 2008)
Several values for one entry are separate records, joined by “and”; a condition that tells them apart may be missing. Equal values may be shown once.

Experiments:
[1] = tested on: S. aureus B29 (clinical isolate, MRSA); experiment: septicaemia mouse model; assay type: in vivo; details: mice, survival on day 5, Probit analysis, e.g. sodium salt
Source text: (§1) E.g., the compounds of the present invention show antimicrobial, e.g. antibacterial activity against gram positive bacteria and gram negative, such as Staphylococcus, e.g. S. aureus, MRSA (Methicillin Resistant S. aureus), MSSA (Methicillin Sensitive S. aureus), Enterococcus, e.g. E. faecalis, E. faecium, Moraxella, e.g. M. catarrhalis, in vitro in the Agar Dilution Test and/or Micro Dilution Test for bacteria according to National Committee for Clinical Laboratory Standards (NCCLS) 1993, • Document M7-A4, Vol. 20, No. 2, 2000: “Methods for dilution Antimicrobial Susceptibility Tests for Bacteria that Grow Aerobically”—Third Edition, Approved Standard”; and • Document M26-A, Vo. 19, No. 18, 1999: Methods for determining antibactericidal activity of antimicrobial agents, • Document M11-A3 for anaerobic bacteria, • in a concentration from about 0.1 to ca. 25.6 μg/ml, e.g. using strains including Staphylococcus aureus (ATCC 29213 and ATCC 29506); Enterococcus faecalis ATCC 29212; • and in vivo in the septicaemia mouse model, in accordance to the method description Nr. 159 A-5, approved by Austrian Health Authorities (MA 58, no. 2968/95 of Oct. 12, 1995), e.g. when administered at dosages from 0.05 to 50 mg/kg body weight.
(§2) The ED50 values are calculated by Probit analysis of the administered dosages of compounds. Activity is determined by numbers of surviving animals per group of 8 or 6 mice, respectively, per dosage unit on day 5 after infection.

[2] = tested on: Staphylococcus aureus (ATCC 49951, MSSA); experiment: septicaemia mouse model; assay type: in vivo; details: mice, treated orally 1 and 4 hours after infection; survival on day 5; Probit analysis; e.g. sodium salt; ranging from 5.54 to 13.34
Source text: as §1, §2

[3] = tested on: methicillin-sensitive Staphylococcus aureus (MSSA) strains; experiment: MIC, Agar Dilution / Micro Dilution Test (NCCLS); assay type: cell-based; details: n=26, e.g. in the form of its sodium salt
Source text: as §1
(§3) Furthermore, the compound of example 1 is active against mupirocin-resistant staphylococci (n=26) with MICs below 0.5 μg/ml (range ≦0.125-0.5 μg/ml). Moraxella catarrhalis isolates (n=2) are inhibited at MICs of 0.2 and 0.4 μg/ml. The MICs for Enterococcus faecalis isolates (n=2) are 6.4 μg/ml and 12.8 μg/ml.

[4] = tested on: Moraxella catarrhalis isolates; experiment: MIC, Agar Dilution / Micro Dilution Test (NCCLS); assay type: cell-based; details: n=2
Source text: as §1, §3

[5] = tested on: Enterococcus faecalis isolates; experiment: MIC, Agar Dilution / Micro Dilution Test (NCCLS); assay type: cell-based; details: n=2
Source text: as §1, §3

[6] = tested on: mupirocin-resistant staphylococci; experiment: MIC, Agar Dilution / Micro Dilution Test (NCCLS); assay type: cell-based; details: n=26
Source text: as §1, §3

Enterococcus faecium = experiment: MIC, Agar Dilution / Micro Dilution Test (NCCLS); assay type: cell-based; details: n=1
Source text: as §1, §3

[7] = tested on: methicillin-resistant S. aureus (MRSA) strains; experiment: MIC, Agar Dilution / Micro Dilution Test (NCCLS); assay type: cell-based, Staphylococcus aureus; details: e.g. in the form of its sodium salt
Source text: E.g., the compounds of the present invention show antimicrobial, e.g. antibacterial activity against gram positive bacteria and gram negative, such as Staphylococcus, e.g. S. aureus, MRSA (Methicillin Resistant S. aureus), MSSA (Methicillin Sensitive S. aureus), Enterococcus, e.g. E. faecalis, E. faecium, Moraxella, e.g. M. catarrhalis, in vitro in the Agar Dilution Test and/or Micro Dilution Test for bacteria according to National Committee for Clinical Laboratory Standards (NCCLS) 1993, • Document M7-A4, Vol. 20, No. 2, 2000: “Methods for dilution Antimicrobial Susceptibility Tests for Bacteria that Grow Aerobically”—Third Edition, Approved Standard”; and • Document M26-A, Vo. 19, No. 18, 1999: Methods for determining antibactericidal activity of antimicrobial agents, • Document M11-A3 for anaerobic bacteria, • in a concentration from about 0.1 to ca. 25.6 μg/ml, e.g. using strains including Staphylococcus aureus (ATCC 29213 and ATCC 29506); Enterococcus faecalis ATCC 29212; • and in vivo in the septicaemia mouse model, in accordance to the method description Nr. […]
The compound of example 1 is a preferred compound of the present invention. It has, for example been determined that the minimum inhibitory concentration, e.g. MIC90 (μg/ml), of the compound of Example 1, e.g. in the form of its sodium salt, against, for example S. aureus (MRSA) is of about 0.2.

## 6-O-(2′-fluoroisobutyryl)-24, 25-dihydro-acremonic acid [Example 1]
[1]; treated orally 1 and 4 hours after infection, ranging from 4.25 to 11.98
  ED50: ca. 6.65 mg/kg body weight
[1]; treated subcutaneously 1 and 4 hours after infection, ranging from 1.93 to 5.85
  ED50: ca. 3.20 mg/kg body weight
[2]
  ED50: ca. 8.55 mg/kg body weight
[3]
  MIC90: 0.25 µg/mL
[4]
  MICs: 0.2 µg/mL and 0.4 µg/mL
[5]
  MICs: 6.4 µg/mL and 12.8 µg/mL
[6]
  MIC range: 0.125 to 0.5 µg/mL
  MICs: below 0.5 μg/ml
Enterococcus faecium
  MIC: 6.4 µg/mL
[7]; MRSA strains, n=26
  MIC50: 0.2 µg/mL
[7]; S. aureus (MRSA)
  MIC90: about 0.2 μg/ml
